Experimental data from US9783536B2, “Nitrogen-containing heterocyclic compound or salt thereof” (FUJIFILM Corporation, priority 2013, dated 2017).
Like-named read-outs stand apart in the source and are kept apart here.

Columns and labels:
Format in all cases: biochemical
[1] = target: T1, GST fusion human ERK2 protein (Homo sapiens, UniProt P28482); assay: ERK2 enzyme assay (1); conditions: read-out: ERK2 enzyme inhibitory activity (1)
T1 construct: purchased Carna Biosciences, Inc; host or cells: E. coli expression system
In short: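 IC50 derived from the proportion of phosphorylated 5-FAM peptide, separated from unphosphorylated peptide by microfluidic mobility shift. Compound was first preincubated 15 min at room temperature with 2.5 nmol/L kinase at pH 7.5, then 43.1 μmol/L ATP plus 4.25 μmol/L substrate reacted 120 min at 25 °C.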

human PI3Kα protein = target: T2, human PI3Kα protein (Homo sapiens, UniProt P42336); assay: PI3Kα enzyme assay (ADP-Glo); conditions: read-out: PI3Kα enzyme inhibitory activity
T2 construct: purchased Carna Biosciences, Inc; host or cells: baculovirus expression system
In short: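 Biotinylated human PI3Kα (baculovirus-expressed, 4.5 nmol/L) pre-incubated 15 min with compound in Tris-HCl pH 7.5, MgCl2, BSA; reaction 60 min at 25° C with 50 μmol/L PIP2 and 100 μmol/L ATP final. ADP quantified by ADP-Glo luminescence; IC50 calculated.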

[2] = target: T1, GST fusion human ERK2 protein; assay: ERK2 enzyme assay (2); conditions: read-out: ERK2 enzyme inhibitory activity (2)
In short: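 IC50 values come from mobility-shift measurement of phosphorylated versus unphosphorylated 5-FAM peptide substrate after EDTA quench. Beforehand, compound and 1.25 nmol/L E. coli-expressed GST–human ERK2 stood 15 min at room temperature (pH 7.5), then 1 mmol/L ATP and 4.25 μmol/L substrate (final) were added for 120 min at 25 °C.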

[3] = 2.5 nmol/L ERK2, ATP 43.1 μmol/L
[4] = 4.5 nmol/L PI3Kα, PIP2 50 μmol/L, ATP 100 μmol/L

T2 sequence (P42336 whole entry): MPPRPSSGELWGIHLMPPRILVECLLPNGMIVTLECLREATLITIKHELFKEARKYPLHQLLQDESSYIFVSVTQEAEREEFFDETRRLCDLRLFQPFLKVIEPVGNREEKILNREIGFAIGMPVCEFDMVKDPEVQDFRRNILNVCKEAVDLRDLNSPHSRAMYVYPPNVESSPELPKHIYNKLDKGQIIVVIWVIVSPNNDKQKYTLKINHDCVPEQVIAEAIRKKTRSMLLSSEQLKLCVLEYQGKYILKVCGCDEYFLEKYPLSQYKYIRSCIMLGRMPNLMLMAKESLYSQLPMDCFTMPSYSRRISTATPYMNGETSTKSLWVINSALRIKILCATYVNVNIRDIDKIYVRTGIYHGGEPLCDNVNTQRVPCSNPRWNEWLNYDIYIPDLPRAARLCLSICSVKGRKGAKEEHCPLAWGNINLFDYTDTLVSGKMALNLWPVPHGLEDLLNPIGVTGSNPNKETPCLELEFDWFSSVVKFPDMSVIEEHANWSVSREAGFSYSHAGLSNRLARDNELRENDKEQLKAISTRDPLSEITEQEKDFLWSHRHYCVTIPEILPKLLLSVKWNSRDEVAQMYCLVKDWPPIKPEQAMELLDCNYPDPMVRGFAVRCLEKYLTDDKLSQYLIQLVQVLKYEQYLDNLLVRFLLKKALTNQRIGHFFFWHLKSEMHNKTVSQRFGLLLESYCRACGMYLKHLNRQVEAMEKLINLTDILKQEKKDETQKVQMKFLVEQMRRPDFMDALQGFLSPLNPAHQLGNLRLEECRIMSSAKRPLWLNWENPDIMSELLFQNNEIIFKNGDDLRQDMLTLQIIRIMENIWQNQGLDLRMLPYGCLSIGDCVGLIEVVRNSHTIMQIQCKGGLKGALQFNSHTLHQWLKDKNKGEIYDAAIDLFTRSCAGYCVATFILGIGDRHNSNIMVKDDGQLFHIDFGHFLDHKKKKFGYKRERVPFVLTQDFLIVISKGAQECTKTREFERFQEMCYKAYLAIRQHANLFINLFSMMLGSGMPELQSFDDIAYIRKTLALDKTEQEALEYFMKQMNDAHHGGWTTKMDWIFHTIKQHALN
T2 sequence (P27986 whole entry partner): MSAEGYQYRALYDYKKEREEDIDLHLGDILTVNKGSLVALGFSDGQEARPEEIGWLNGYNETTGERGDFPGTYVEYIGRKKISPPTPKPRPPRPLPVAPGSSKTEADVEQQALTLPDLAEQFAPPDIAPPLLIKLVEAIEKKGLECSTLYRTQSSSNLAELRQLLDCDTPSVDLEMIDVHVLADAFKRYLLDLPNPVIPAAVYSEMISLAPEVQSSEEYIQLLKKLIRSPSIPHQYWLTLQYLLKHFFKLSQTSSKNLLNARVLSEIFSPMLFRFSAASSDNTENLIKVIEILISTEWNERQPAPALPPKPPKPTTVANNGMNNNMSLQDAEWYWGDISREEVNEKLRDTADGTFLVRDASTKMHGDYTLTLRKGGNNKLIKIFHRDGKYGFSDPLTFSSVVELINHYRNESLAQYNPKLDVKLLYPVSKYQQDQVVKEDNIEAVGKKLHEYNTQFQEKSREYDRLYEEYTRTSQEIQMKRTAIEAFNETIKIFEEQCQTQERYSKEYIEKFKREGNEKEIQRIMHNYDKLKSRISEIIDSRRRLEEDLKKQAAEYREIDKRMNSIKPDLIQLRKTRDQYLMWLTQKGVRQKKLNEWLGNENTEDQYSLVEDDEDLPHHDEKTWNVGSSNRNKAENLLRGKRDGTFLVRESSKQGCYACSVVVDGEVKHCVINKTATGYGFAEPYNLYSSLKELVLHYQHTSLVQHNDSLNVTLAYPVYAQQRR
T1 sequence (P28482 whole entry, the tested form may be a part): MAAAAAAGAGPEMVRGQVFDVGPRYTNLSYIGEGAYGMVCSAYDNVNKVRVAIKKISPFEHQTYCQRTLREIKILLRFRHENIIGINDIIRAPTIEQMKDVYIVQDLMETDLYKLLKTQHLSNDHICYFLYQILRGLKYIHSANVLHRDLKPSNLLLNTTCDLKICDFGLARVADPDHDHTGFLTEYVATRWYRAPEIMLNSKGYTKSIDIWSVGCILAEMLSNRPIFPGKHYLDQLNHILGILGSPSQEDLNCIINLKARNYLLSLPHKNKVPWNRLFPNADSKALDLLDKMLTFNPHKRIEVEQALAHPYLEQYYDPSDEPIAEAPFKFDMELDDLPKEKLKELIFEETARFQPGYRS

Row | IC50 [1, 3] | IC50 (human PI3Kα protein; [4]) | IC50 ([2]; 1.25 nmol/L ERK2, ATP 1 mmol/L) | IC50 ([1]; ERK2 enzyme assay (1)) | IC50 (human PI3Kα protein) | IC50 ([2]; ERK2 enzyme assay (2)) | SMILES
1 |  |  |  | < 1000 nM | 1000 to 10000 nM | < 1000 nM | c1nc2ccc(Nc3nnc(C4CCCC4)s3)nc2cc1N1CCOCC1 [Example 0311, 5-cyclopentyl-N-(7-morpholino-1,5-naphthyridin-2-yl)-1,3,4-thiadiazole-2-amine]
2 |  |  |  | < 1000 nM | < 1000 nM | < 1000 nM | FC1(F)CCN(CCCn2cc(-c3cnc4ccc(Nc5nnc(C6CCCC6)s5)nc4c3)cn2)CC1 [Example 0353]
3 |  |  |  | < 1000 nM | < 1000 nM | < 1000 nM | c1nc2ccc(Nc3cc(N4CCCC4)cnn3)nc2cc1-c1cnn(CCCN2CCCC2)c1 [Example 0402, 7-(1-(3-(Pyrrolidin-1-yl)propyl)-1H-pyrazol-4-yl)-N-(5-(pyrrolidin-1-yl)pyridazin-3-yl)-1,5-naphthyridine-2-amine]
4 |  |  |  | < 1000 nM | < 1000 nM | < 1000 nM | F[C@H]1CCN(CCCn2cc(-c3cnc4ccc(Nc5nnc(C6CCCC6)s5)nc4c3)cn2)C1 [Example 0346]
5 |  |  |  | < 1000 nM | < 1000 nM | < 1000 nM | CCOc1c(-c2cnn(C)c2)cnc2ccc(Nc3nnc(C4CCCC4)s3)nc12 [Example 0358, 5-Cyclopentyl-N-(8-ethoxy-7-(1-methyl-1H-pyrazol-4-yl)-1,5-naphthyridin-2-yl)-1,3,4-thiadiazole-2-amine]
6 |  |  |  | < 1000 nM | 1000 to 10000 nM | < 1000 nM | COc1cc(-c2cnc3ccc(Nc4cc(C(C)C)cnn4)nc3c2)ccn1 [Example 0588]
7 |  |  |  | < 1000 nM | < 1000 nM | < 1000 nM | COCCCn1cc(-c2cnc3ccc(Nc4nnc(C5CCCC5)s4)nc3c2)cn1 [Example 0339, 5-cyclopentyl-N-(7-(1-(3-methoxypropyl)-1H-pyrazol-4-yl)-1,5-naphthyridin-2-yl)-1,3,4-thiadiazole-2-amine]
8 |  |  |  | < 1000 nM | < 1000 nM | < 1000 nM | FC1(F)CN(CCCn2cc(-c3cnc4ccc(Nc5nnc(C6CCCC6)s5)nc4c3)cn2)C1 [Example 0354]
9 |  |  |  | < 1000 nM | < 1000 nM | < 1000 nM | COCCn1cc(-c2cnc3ccc(Nc4cc(C(C)C)cnn4)nc3c2)cn1 [Example 0471, N-(5-isopropylpyridazin-3-yl)-7-(1-(2-methoxyethyl)-1H-pyrazol-4-yl)-1,5-naphthyridine-2-amine]
10 |  |  |  | < 1000 nM | 1000 to 10000 nM | < 1000 nM | Cn1cc(-c2cnc3ccc(Nc4nnc(C5CCCC5)s4)nc3c2Cl)cn1 [Example 0350, N-(8-chloro-7-(1-methyl-1H-pyrazol-4-yl)-1,5-naphthyridin-2-yl)-5-cyclopentyl-1,3,4-thiadiazole-2-amine]
11 |  |  |  | < 1000 nM | < 1000 nM | < 1000 nM | CN1CCC(n2cc(-c3cnc4ccc(Nc5nnc(C6CCCC6)s5)nc4c3)cn2)CC1 [Example 0318, 5-cyclopentyl-N-(7-(1-(1-methylpiperidin-4-yl)-1H-pyrazol-4-yl)-1,5-naphthyridin-2-yl)-1,3,4-thiadiazole-2-amine]

Continued, compound first:

Row | SMILES | IC50 [1, 3] | IC50 (human PI3Kα protein; [4]) | IC50 ([2]; 1.25 nmol/L ERK2, ATP 1 mmol/L) | IC50 ([1]; ERK2 enzyme assay (1)) | IC50 (human PI3Kα protein) | IC50 ([2]; ERK2 enzyme assay (2))
12 | c1ncc(N2CCOCC2)cc1Nc1cnc2ccc(Nc3nnc(C4CCCC4)s3)nc2c1 [Example 0090] | < 1000 nM | < 1000 nM | < 1000 nM |  |  | 
13 | c1cc(Nc2cnc3ccc(Nc4nnc(C5CCCC5)s4)nc3c2)cnn1 [Example 0088] | < 1000 nM | < 1000 nM | < 1000 nM |  |  | 
14 | CC(C)c1nnc(Nc2ccc3ncc(-c4cn(C)nc4-c4ccncc4)cc3n2)s1 [Example 0135] | < 1000 nM | < 1000 nM | 1000 to 10000 nM |  |  | 
15 | c1ncc(OCCCN2CCCC2)cc1Nc1cnc2ccc(Nc3nnc(C4CCCC4)s3)nc2c1 [Example 0087] | < 1000 nM | < 1000 nM | < 1000 nM |  |  | 
16 | CC(C)(C)c1cnnc(Nc2ccc3ncc(-c4cnn(CCCN5CCCC5)c4)cc3n2)c1 [Example 0290] |  |  |  | < 1000 nM | < 1000 nM | < 1000 nM
17 | CC(C)Cc1nn(C)cc1-c1cnc2ccc(Nc3nnc(C(C)C)s3)nc2c1 [Example 0138] | < 1000 nM | < 1000 nM | < 1000 nM |  |  | 
18 | CN1CCC(c2nnc(Nc3ccc4ncc(-c5cnn(C)c5)cc4n3)s2)C1 (stereo not drawn) [Example 0252, N-(7-(1-methyl-1H-pyrazol-4-yl)-1,5-naphthyridin-2-yl)-5-(1-methylpyrrolidin-3-yl)-1,3,4-thiadiazole-2-amine] |  |  |  | < 1000 nM | 1000 to 10000 nM | < 1000 nM
19 | CCOC(=O)Cc1nnc(Nc2ccc3ncc(-c4cnn(CCCN5CCCC5)c4)cc3n2)s1 [Example 0242, ethyl (5-((7-(1-(3-(pyrrolidin-1-yl)propyl)-1H-pyrazol-4-yl)-1,5-naphthyridin-2-yl)amino)-1,3,4-thiadiazol-2-yl)acetate] |  |  |  | < 1000 nM | < 1000 nM | < 1000 nM
20 | c1cc(OC2CCOCC2)ncc1Nc1cnc2ccc(Nc3nnc(C4CCCC4)s3)nc2c1 [Example 0093] | < 1000 nM | 1000 to 10000 nM | 10000 to 50000 nM |  |  | 
21 | Cc1cnnc(Nc2ccc3ncc(Nc4cncc(OCCN5CCOCC5)c4)cc3n2)c1 [Example 0158, N^2-(5-methylpyridazin-3-yl)-N^7-(5-(2-morpholinoethoxyl)pyridin-3-yl)-1,5-naphthyridine-2,7-diamine] | < 1000 nM | < 1000 nM | 1000 to 10000 nM |  |  | 
22 | c1nc2ccc(Nc3cc(C4CC4)cnn3)nc2cc1-c1cnn(CCCN2CCCC2)c1 [Example 0295, N-(5-cyclopropylpyridazin-3-yl)-7-(1-(3-(pyrrolidin-1-yl)propyl)-1H-pyrazol-4-yl)-1,5-naphthyridine-2-amine] |  |  |  | < 1000 nM | < 1000 nM | < 1000 nM
23 | CC(C)c1nnc(Nc2ccc3ncc(Nc4ccc(CN5CCOCC5)nc4)cc3n2)s1 [Example 0096] | < 1000 nM | < 1000 nM | < 1000 nM |  |  | 
24 | CC(C)c1nnc(Nc2ccc3ncc(-c4cn(C)nc4-c4cccnc4)cc3n2)s1 [Example 0134] | < 1000 nM | < 1000 nM | < 1000 nM |  |  | 
25 | Cn1cc(-c2cnc3ccc(Nc4nnc(C(C)(C)C)s4)nc3c2)cn1 [Example 0162] | < 1000 nM | < 1000 nM | < 1000 nM |  |  | 
26 | Cn1cc(-c2cnc3ccc(Nc4nnc(C5CCCC5)s4)nc3c2)c(C2CC2)n1 [Example 0132] | < 1000 nM | < 1000 nM | < 1000 nM |  |  | 
27 | CC(C)c1nnc(Nc2ccc3ncc(Nc4cncnc4)cc3n2)s1 [Example 0095] | < 1000 nM | < 1000 nM | 1000 to 10000 nM |  |  | 
28 | Cn1cc(-c2cnc3ccc(Nc4nnc(C5CCNC5)s4)nc3c2)cn1 (stereo not drawn) [Example 0251] |  |  |  | < 1000 nM | 1000 to 10000 nM | < 1000 nM
29 | COCc1nn(C)cc1-c1cnc2ccc(Nc3nnc(C(C)C)s3)nc2c1 [Example 0142] | < 1000 nM | < 1000 nM | < 1000 nM |  |  | 
30 | c1nc2ccc(Nc3nnc(C4CCCC4)s3)nc2cc1-c1cnn(CCCN2CCNCC2)c1 [Example 0303, 5-cyclopentyl-N-(7-(1-(3-(piperazin-1-yl)propyl)-1H-pyrazol-4-yl)-1,5-naphthyridin-2-yl)-1,3,4-thiadiazole-2-amine] |  |  |  | < 1000 nM | < 1000 nM | < 1000 nM
31 | COc1cncc(Nc2cnc3ccc(Nc4nnc(C5CCCC5)s4)nc3c2)c1 [Example 0072] | < 1000 nM | < 1000 nM | < 1000 nM |  |  | 
32 | COCc1nn(C)cc1-c1cnc2ccc(Nc3cc(C(C)C)cnn3)nc2c1 [Example 0160] | < 1000 nM | < 1000 nM | < 1000 nM |  |  | 
